Data set [1] is described as follows: Drug uptake in human Jurkat cells assessed as mean fluorescence intensity at 7 uM after 15 mins in presence of bovine serum by propidium iodide staining based FACS analysis. The class given is ADME, cell-based. Particulars: 0.25 h. (In general: Flow cytometry measures light scatter and fluorescence of single cells or particles in a stream.)
A short description of data set [2]: Drug uptake in human Jurkat cells assessed as mean fluorescence intensity at 120 uM after 15 mins in presence of bovine serum by propidium iodide staining based FACS analysis. It is filed as ADME, cell-based. To be noted: 0.25 h.
Data set [3] in a line: Cytotoxicity against human Jurkat cells assessed as reduction in cell viability at 120 uM after 4 hrs by WST1 assay. The class given is toxicity, cell-based. A general note: Tetrazolium dyes change colour on reduction, which living cells bring about.
Data set [4] can be described thus: Competitive binding affinity to fluorescein-labeled HIV TAR RNA in presence of Escherichia coli tRNA by electrophoretic mobility shift assay. On the set-up: species or system Human immunodeficiency virus. Particulars: read-out: Kd(app); call rule not given here.

`N=C(N)NCCC[C@H](NC(=O)[C@H](CCCNC(=N)N)NC(=O)[C@H](CCCNC(=N)N)NC(=O)[C@H](CCC(N)=O)NC(=O)[C@H](CCCNC(=N)N)NC(=O)[C@H](CCCNC(=N)N)NC(=O)[C@H](CCCCN)NC(=O)[C@H](CCCCN)NC(=O)[C@H](CCCNC(=N)N)NC(=O)CNC(=O)[C@H](Cc1ccc(O)cc1)NC(=O)CCNC(=O)c1ccc2c(c1)C1(OC2=O)c2ccc(O)cc2Oc2cc(O)ccc21)C(N)=O`: the Drug uptake result in data set [1] and in data set [2] was “Active” each time. Moreover, the Activity result in data set [3] is “Non-Toxic”.

Regarding `C[N+](C)(C)CCCC[C@H](NC(=O)[C@H](CCCCN)NC(=O)[C@H](CCCNC(=N)N)NC(=O)CNC(=O)[C@H](Cc1ccc(O)cc1)NC(=O)CCNC(=O)c1ccc2c(c1)C1(OC2=O)c2ccc(O)cc2Oc2cc(O)ccc21)C(=O)N[C@@H](CCCNC(=N)N)C(=O)N[C@@H](CCCNC(=N)N)C(=O)N[C@@H](CCC(N)=O)C(=O)N[C@@H](CCCNC(=N)N)C(=O)N[C@@H](CCCNC(=N)N)C(=O)N[C@@H](CCCNC(=N)N)C(=O)O`, the Drug uptake entry in data set [2] is listed as “Active”. Moreover, the Activity entry in data set [3] is reported as “Non-Toxic”.

`CC(=O)N[C@@H](Cc1ccc(O)cc1)C(=O)NCC(=O)N[C@@H](CCCNC(=N)N)C(=O)N[C@@H](CCCCN(C)C)C(=O)N[C@@H](CCCCN)C(=O)N[C@@H](CCCNC(=N)N)C(=O)N[C@@H](CCCNC(=N)N)C(=O)N[C@@H](CCC(N)=O)C(=O)N[C@@H](CCCNC(=N)N)C(=O)N[C@@H](CCCNC(=N)N)C(=O)N[C@@H](CCCNC(=N)N)C(N)=O`: the Kd in data set [4] was 183 nM.

Turning to `CN(C)CCCC[C@H](NC(=O)[C@H](CCCNC(=N)N)NC(=O)CNC(=O)[C@H](Cc1ccc(O)cc1)NC(=O)CCNC(=O)c1ccc2c(c1)C1(OC2=O)c2ccc(O)cc2Oc2cc(O)ccc21)C(=O)N[C@@H](CCCCN)C(=O)N[C@@H](CCCNC(=N)N)C(=O)N[C@@H](CCCNC(=N)N)C(=O)N[C@@H](CCC(N)=O)C(=O)N[C@@H](CCCNC(=N)N)C(=O)N[C@@H](CCCNC(=N)N)C(=O)N[C@@H](CCCNC(=N)N)C(=O)O`, the Drug uptake entry in data set [1] and in data set [2] was “Active” each time. Further, in data set [3], the Activity result is “Non-Toxic”.

In the case of `C[N+](C)(C)CCCC[C@H](NC(=O)[C@H](CCCNC(=N)N)NC(=O)CNC(=O)[C@H](Cc1ccc(O)cc1)NC(=O)CCNC(=O)c1ccc2c(c1)C1(OC2=O)c2ccc(O)cc2Oc2cc(O)ccc21)C(=O)N[C@@H](CCCCN)C(=O)N[C@@H](CCCNC(=N)N)C(=O)N[C@@H](CCCNC(=N)N)C(=O)N[C@@H](CCC(N)=O)C(=O)N[C@@H](CCCNC(=N)N)C(=O)N[C@@H](CCCNC(=N)N)C(=O)N[C@@H](CCCNC(=N)N)C(=O)O`, the Drug uptake result in data set [1] and in data set [2] was “Active” each time. The Activity result in data set [3] is given as “Non-Toxic”.

With `CC(=O)NCCCC[C@H](NC(=O)[C@H](CCCNC(=N)N)NC(=O)CNC(=O)[C@H](Cc1ccc(O)cc1)NC(C)=O)C(=O)N[C@@H](CCCCN)C(=O)N[C@@H](CCCNC(=N)N)C(=O)N[C@@H](CCCNC(=N)N)C(=O)N[C@@H](CCC(N)=O)C(=O)N[C@@H](CCCNC(=N)N)C(=O)N[C@@H](CCCNC(=N)N)C(=O)N[C@@H](CCCNC(=N)N)C(N)=O`, the Kd in data set [4] worked out at 437 nM.

With `CC(=O)N[C@@H](Cc1ccc(O)cc1)C(=O)NCC(=O)N[C@@H](CCCNC(=N)N)C(=O)N[C@@H](CCCC[N+](C)(C)C)C(=O)N[C@@H](CCCCN)C(=O)N[C@@H](CCCNC(=N)N)C(=O)N[C@@H](CCCNC(=N)N)C(=O)N[C@@H](CCC(N)=O)C(=O)N[C@@H](CCCNC(=N)N)C(=O)N[C@@H](CCCNC(=N)N)C(=O)N[C@@H](CCCNC(=N)N)C(N)=O`, the Kd in data set [4] was determined as 168 nM.

Take `CNCCCC[C@H](NC(=O)[C@H](CCCCN)NC(=O)[C@H](CCCNC(=N)N)NC(=O)CNC(=O)[C@H](Cc1ccc(O)cc1)NC(=O)CCNC(=O)c1ccc2c(c1)C1(OC2=O)c2ccc(O)cc2Oc2cc(O)ccc21)C(=O)N[C@@H](CCCNC(=N)N)C(=O)N[C@@H](CCCNC(=N)N)C(=O)N[C@@H](CCC(N)=O)C(=O)N[C@@H](CCCNC(=N)N)C(=O)N[C@@H](CCCNC(=N)N)C(=O)N[C@@H](CCCNC(=N)N)C(=O)O`: the Activity entry in data set [3] was “Non-Toxic”.

For the compound `CC(=O)NCCCC[C@H](NC(=O)[C@H](CCCCN)NC(=O)[C@H](CCCNC(=N)N)NC(=O)CNC(=O)[C@H](Cc1ccc(O)cc1)NC(=O)CCNC(=O)c1ccc2c(c1)C1(OC2=O)c2ccc(O)cc2Oc2cc(O)ccc21)C(=O)N[C@@H](CCCNC(=N)N)C(=O)N[C@@H](CCCNC(=N)N)C(=O)N[C@@H](CCC(N)=O)C(=O)N[C@@H](CCCNC(=N)N)C(=O)N[C@@H](CCCNC(=N)N)C(=O)N[C@@H](CCCNC(=N)N)C(=O)O`, in data set [3], the Activity result is recorded as “Non-Toxic”.

Consider `CC(=O)NCCCC[C@H](NC(=O)[C@H](CCCNC(=N)N)NC(=O)CNC(=O)[C@H](Cc1ccc(O)cc1)NC(=O)CCNC(=O)c1ccc2c(c1)C1(OC2=O)c2ccc(O)cc2Oc2cc(O)ccc21)C(=O)N[C@@H](CCCCN)C(=O)N[C@@H](CCCNC(=N)N)C(=O)N[C@@H](CCCNC(=N)N)C(=O)N[C@@H](CCC(N)=O)C(=O)N[C@@H](CCCNC(=N)N)C(=O)N[C@@H](CCCNC(=N)N)C(=O)N[C@@H](CCCNC(=N)N)C(=O)O`, for which the Activity entry in data set [3] is reported as “Non-Toxic”.

As for `CNCCCC[C@H](NC(=O)[C@H](CCCNC(=N)N)NC(=O)CNC(=O)[C@H](Cc1ccc(O)cc1)NC(=O)CCNC(=O)c1ccc2c(c1)C1(OC2=O)c2ccc(O)cc2Oc2cc(O)ccc21)C(=O)N[C@@H](CCCCN)C(=O)N[C@@H](CCCNC(=N)N)C(=O)N[C@@H](CCCNC(=N)N)C(=O)N[C@@H](CCC(N)=O)C(=O)N[C@@H](CCCNC(=N)N)C(=O)N[C@@H](CCCNC(=N)N)C(=O)N[C@@H](CCCNC(=N)N)C(=O)O`, the Drug uptake entry in data set [1] and in data set [2] was “Active” throughout. Further, the Activity result in data set [3] is given as “Non-Toxic”.

For the compound `CC(=O)N[C@@H](Cc1ccc(O)cc1)C(=O)NCC(=O)N[C@@H](CCCNC(=N)N)C(=O)N[C@@H](CCCCN)C(=O)N[C@@H](CCCCN(C)C)C(=O)N[C@@H](CCCNC(=N)N)C(=O)N[C@@H](CCCNC(=N)N)C(=O)N[C@@H](CCC(N)=O)C(=O)N[C@@H](CCCNC(=N)N)C(=O)N[C@@H](CCCNC(=N)N)C(=O)N[C@@H](CCCNC(=N)N)C(N)=O`, the Kd in data set [4] was 280 nM.

As to `CN(C)CCCC[C@H](NC(=O)[C@H](CCCCN)NC(=O)[C@H](CCCNC(=N)N)NC(=O)CNC(=O)[C@H](Cc1ccc(O)cc1)NC(=O)CCNC(=O)c1ccc2c(c1)C1(OC2=O)c2ccc(O)cc2Oc2cc(O)ccc21)C(=O)N[C@@H](CCCNC(=N)N)C(=O)N[C@@H](CCCNC(=N)N)C(=O)N[C@@H](CCC(N)=O)C(=O)N[C@@H](CCCNC(=N)N)C(=O)N[C@@H](CCCNC(=N)N)C(=O)N[C@@H](CCCNC(=N)N)C(=O)O`, the Drug uptake entry in data set [2] is “Active”. The Activity result in data set [3] is “Non-Toxic”.

With `CC(=O)NCCCC[C@H](NC(=O)[C@H](CCCCN)NC(=O)[C@H](CCCNC(=N)N)NC(=O)CNC(=O)[C@H](Cc1ccc(O)cc1)NC(C)=O)C(=O)N[C@@H](CCCNC(=N)N)C(=O)N[C@@H](CCCNC(=N)N)C(=O)N[C@@H](CCC(N)=O)C(=O)N[C@@H](CCCNC(=N)N)C(=O)N[C@@H](CCCNC(=N)N)C(=O)N[C@@H](CCCNC(=N)N)C(N)=O`, the Kd in data set [4] was 371 nM.

In the case of `CNCCCC[C@H](NC(=O)[C@H](CCCCN)NC(=O)[C@H](CCCNC(=N)N)NC(=O)CNC(=O)[C@H](Cc1ccc(O)cc1)NC(C)=O)C(=O)N[C@@H](CCCNC(=N)N)C(=O)N[C@@H](CCCNC(=N)N)C(=O)N[C@@H](CCC(N)=O)C(=O)N[C@@H](CCCNC(=N)N)C(=O)N[C@@H](CCCNC(=N)N)C(=O)N[C@@H](CCCNC(=N)N)C(N)=O`, in data set [4], the Kd turned out to be 410 nM.

Consider `CNCCCC[C@H](NC(=O)[C@H](CCCNC(=N)N)NC(=O)CNC(=O)[C@H](Cc1ccc(O)cc1)NC(C)=O)C(=O)N[C@@H](CCCCN)C(=O)N[C@@H](CCCNC(=N)N)C(=O)N[C@@H](CCCNC(=N)N)C(=O)N[C@@H](CCC(N)=O)C(=O)N[C@@H](CCCNC(=N)N)C(=O)N[C@@H](CCCNC(=N)N)C(=O)N[C@@H](CCCNC(=N)N)C(N)=O`, for which the Kd in data set [4] is 264 nM.

As for `CC(=O)N[C@@H](Cc1ccc(O)cc1)C(=O)NCC(=O)N[C@@H](CCCNC(=N)N)C(=O)N[C@@H](CCCCN)C(=O)N[C@@H](CCCC[N+](C)(C)C)C(=O)N[C@@H](CCCNC(=N)N)C(=O)N[C@@H](CCCNC(=N)N)C(=O)N[C@@H](CCC(N)=O)C(=O)N[C@@H](CCCNC(=N)N)C(=O)N[C@@H](CCCNC(=N)N)C(=O)N[C@@H](CCCNC(=N)N)C(N)=O`, the Kd in data set [4] was found to be 599 nM.

The values are drawn from ChEMBL document CHEMBL3860082, “Effect of lysine methylation and acetylation on the RNA recognition and cellular uptake of Tat-derived peptides” (Bioorg Med Chem, 2016).
